One assay concerns the target FRK (PTK5) (Homo sapiens, UniProt P42685). The assay can be described thus: Tyrosine kinase inhibition assay. The class given is biochemical. The note with it: single concentration 1.0 μM, read-out: percent inhibition. As to the method: (§1) Tyrosine kinase inhibition assays were performed at ThermoFisher Life Technologies (Madison, WI, USA) using standard protocols (SelectScreen Biochemical Profiling Service, Thermo Fisher Scientific). ATP concentrations used were at the apparent Km. Test compounds were screened in 1% dimethylsulffoxide (DMSO) (final concentration) in the well. For 10-point titrations, 3-fold serial dilutions were conducted from the starting concentration of […]. All Peptide/Kinase Mixtures were diluted to a 2× working concentration in the appropriate Kinase Buffer. All ATP Solutions were diluted to a 4× working concentration in Kinase Buffer (50 mM HEPES pH 7.5, 0.01% BRIJ-35, 10 mM MgCl2, 1 mM EGTA). The apparent ATP Km was previously determined using a Z′-LYTE assay. The Development Reagent was diluted in Development Buffer.
(§2) The inhibition activities of compounds were determined in biochemical assays using single concentration (1.0 μM) measurements. The results were provided as percent inhibition values.

The target of the next assay is RET (Homo sapiens, UniProt P07949). The assay can be described thus: Tyrosine kinase inhibition assay. It is filed as biochemical. The note with it: single concentration 1.0 μM, read-out: percent inhibition. As to the method: as §1, §2
A further assay deals with LYN A (Homo sapiens, UniProt P07948). Kind of assay: Tyrosine kinase inhibition assay. It is filed as biochemical. The note with it: single concentration 1.0 μM, read-out: percent inhibition. As to the method:
as §1
(§3) The inhibition activities of compounds were determined in biochemical assays using single concentration (1.0 μM) measurements. The results were provided as percent inhibition values. A compound displaying a percent inhibition value of greater 80% was defined as a hit. 99 different tyrosine kinases were used.

The target of a further assay is LYN B (Homo sapiens, UniProt P07948). The assay can be described thus: Tyrosine kinase inhibition assay. The class given is biochemical. The settings on record: LYN B; single concentration 1.0 μM; read-out: percent inhibition. As to the method:
as §1, §3

Another assay concerns the target NTRK2 (TRKB) (Homo sapiens, UniProt Q16620). The assay can be described thus: Tyrosine kinase inhibition assay. The note with it: NTRK2 (TRKB); single concentration 1.0 μM; read-out: percent inhibition. It is filed as biochemical. The procedure: as §1, §3
In a further assay the target is FER (Homo sapiens, UniProt P16591). Kind of assay: Tyrosine kinase inhibition assay. The class given is biochemical. The note with it: single concentration 1.0 μM, read-out: percent inhibition. As to the method: as §1, §3
The target of a further assay is FLT4 (VEGFR3) (Homo sapiens, UniProt P35916). The assay can be described thus: Tyrosine kinase inhibition assay. It is filed as biochemical. The settings on record: single concentration 1.0 μM, read-out: percent inhibition. As to the method: as §1, §3
For the next assay, the target named is FGR (Homo sapiens, UniProt P09769). The assay can be described thus: Tyrosine kinase inhibition assay. It is filed as biochemical. The note with it: single concentration 1.0 μM, read-out: percent inhibition. As to the method: as §1, §3
For another assay, the target named is SRC (Homo sapiens, UniProt P12931). Kind of assay: Tyrosine kinase inhibition assay. It is filed as biochemical. The note with it: single concentration 1.0 μM, read-out: percent inhibition. As to the method:
as §1, §3

A further assay addresses EPHA2 (Homo sapiens, UniProt P29317). Kind of assay: Tyrosine kinase inhibition assay. The note with it: single concentration 1.0 μM, read-out: percent inhibition. It is filed as biochemical. The procedure: as §1, §3
A further assay has as its target ROS1 (Homo sapiens, UniProt P08922). Kind of assay: Tyrosine kinase inhibition assay. It is filed as biochemical. The settings on record: single concentration 1.0 μM, read-out: percent inhibition. As to the method:
as §1, §3

In the next assay the target is BTK (Homo sapiens, UniProt Q06187). Kind of assay: Tyrosine kinase inhibition assay. The class given is biochemical. The note with it: single concentration 1.0 μM, read-out: percent inhibition. As to the method:
as §1, §3

A further assay has as its target LCK (Homo sapiens, UniProt P06239). The assay can be described thus: Tyrosine kinase inhibition assay. The class given is biochemical. The note with it: single concentration 1.0 μM, read-out: percent inhibition. The procedure:
as §1, §3

The target of a further assay is INSRR (IRR) (Homo sapiens, UniProt P14616). The assay can be described thus: Tyrosine kinase inhibition assay. The class given is biochemical. The settings on record: single concentration 1.0 μM, read-out: percent inhibition. As to the method: as §1, §3
The next assay concerns the target HCK (Homo sapiens, UniProt P08631). Kind of assay: Tyrosine kinase inhibition assay. The class given is biochemical. The note with it: single concentration 1.0 μM, read-out: percent inhibition. The procedure:
as §1, §3

The next assay concerns the target PDGFRA (PDGFR alpha) (Homo sapiens, UniProt P16234). Kind of assay: Tyrosine kinase inhibition assay. The class given is biochemical. The note with it: single concentration 1.0 μM, read-out: percent inhibition. As to the method:
as §1, §3

For another assay, the target named is EGFR (ErbB1) (Homo sapiens, UniProt P00533). Kind of assay: Tyrosine kinase inhibition assay. It is filed as biochemical. The note with it: single concentration 1.0 μM, read-out: percent inhibition. The procedure: as §1
(§4) The inhibition activities of compounds were determined in biochemical assays using single concentration (1.0 μM) measurements. The results were provided as percent inhibition values. […] 99 different tyrosine kinases were used.

A further assay addresses ABL1 (Homo sapiens, UniProt P00519). The assay can be described thus: Tyrosine kinase inhibition assay. It is filed as biochemical. The note with it: single concentration 1.0 μM, read-out: percent inhibition. The procedure: as §1, §4
A further assay has as its target PTK2 (FAK) (Homo sapiens, UniProt Q05397). Kind of assay: Tyrosine kinase inhibition assay. It is filed as biochemical. The settings on record: single concentration 1.0 μM, read-out: percent inhibition. As to the method:
as §1, §4

The target of the next assay is FLT1 (VEGFR1) (Homo sapiens, UniProt P17948). The assay can be described thus: Tyrosine kinase inhibition assay. The class given is biochemical. The note with it: single concentration 1.0 μM, read-out: percent inhibition. The procedure: as §1, §4
Another assay relates to CT-26 cells. Kind of assay: In vitro cytotoxicity assay (MTT, 72 h). The note with it: Mus musculus, CT26, growth inhibition. The class given is cell-based, murine. The procedure: Six different cell lines were used, including human breast cancer cell lines MDA-MB-231 (6×10^3) and MDA-MB-453 (2.4×10^4), human colorectal cell line SW48 (2.4×10^4), human breast epithelial cell line M10 (6×10^3), human cancer cell line A549 (1.4×10^3), and murine colorectal carcinoma tumors CT26 (6×10^3), which were seeded in a 96-well plate. […] After 72 h, MTT assay (Cayman™) was used to determine the cellular viability.

Drawing on patent publication US20250120967A1, “TYROSINE KINASES INHIBITORS AND USES THEREOF” (GREAT NOVEL THERAPEUTICS BIOTECH & MEDICALS CORPORATION, priority 2023, published 2025), this text covers inhibition and IC50 for 1 compound.

Chain of LYN A (P07948 whole entry): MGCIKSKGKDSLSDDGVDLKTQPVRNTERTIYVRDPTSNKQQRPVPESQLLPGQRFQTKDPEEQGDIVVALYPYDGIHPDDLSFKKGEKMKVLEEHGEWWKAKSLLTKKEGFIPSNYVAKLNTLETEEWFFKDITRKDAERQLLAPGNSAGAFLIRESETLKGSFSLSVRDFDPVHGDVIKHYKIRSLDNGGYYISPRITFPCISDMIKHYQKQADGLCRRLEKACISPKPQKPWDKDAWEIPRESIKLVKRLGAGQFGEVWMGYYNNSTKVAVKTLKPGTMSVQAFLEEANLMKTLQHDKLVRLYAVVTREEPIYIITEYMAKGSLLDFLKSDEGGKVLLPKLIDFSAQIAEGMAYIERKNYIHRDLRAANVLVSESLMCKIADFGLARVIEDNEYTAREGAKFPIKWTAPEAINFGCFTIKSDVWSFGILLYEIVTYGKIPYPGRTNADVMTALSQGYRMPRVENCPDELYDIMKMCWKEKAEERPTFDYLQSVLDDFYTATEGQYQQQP
Chain of RET (P07949 29-1114): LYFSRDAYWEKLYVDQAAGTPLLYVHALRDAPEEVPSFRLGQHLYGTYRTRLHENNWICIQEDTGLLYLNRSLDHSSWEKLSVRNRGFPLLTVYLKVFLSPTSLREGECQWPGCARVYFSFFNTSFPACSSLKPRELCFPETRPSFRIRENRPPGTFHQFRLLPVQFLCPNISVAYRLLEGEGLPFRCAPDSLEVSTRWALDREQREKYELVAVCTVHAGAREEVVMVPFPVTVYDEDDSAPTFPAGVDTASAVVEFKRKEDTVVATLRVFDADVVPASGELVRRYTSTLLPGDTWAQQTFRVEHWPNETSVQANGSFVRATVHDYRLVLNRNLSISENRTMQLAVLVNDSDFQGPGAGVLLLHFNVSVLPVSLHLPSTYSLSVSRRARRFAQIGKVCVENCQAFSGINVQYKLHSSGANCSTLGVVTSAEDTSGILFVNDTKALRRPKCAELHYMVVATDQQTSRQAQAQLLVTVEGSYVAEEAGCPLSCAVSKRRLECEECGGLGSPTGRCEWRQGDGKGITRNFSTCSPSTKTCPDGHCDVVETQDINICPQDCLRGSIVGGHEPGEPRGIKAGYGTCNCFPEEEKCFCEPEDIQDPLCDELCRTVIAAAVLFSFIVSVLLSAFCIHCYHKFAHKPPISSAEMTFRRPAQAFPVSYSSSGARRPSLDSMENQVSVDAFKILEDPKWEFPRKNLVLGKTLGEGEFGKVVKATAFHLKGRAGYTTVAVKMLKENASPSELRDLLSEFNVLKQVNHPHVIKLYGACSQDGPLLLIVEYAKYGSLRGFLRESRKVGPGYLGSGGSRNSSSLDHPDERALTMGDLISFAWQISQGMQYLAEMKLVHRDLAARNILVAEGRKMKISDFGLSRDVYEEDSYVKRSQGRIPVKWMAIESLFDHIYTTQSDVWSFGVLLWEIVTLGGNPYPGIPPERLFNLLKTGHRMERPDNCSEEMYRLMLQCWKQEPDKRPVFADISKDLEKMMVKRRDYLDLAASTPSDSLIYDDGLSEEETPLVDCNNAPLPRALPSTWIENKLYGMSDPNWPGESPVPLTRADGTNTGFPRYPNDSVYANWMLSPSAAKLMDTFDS
Chain of ROS1 (P08922 28-2347): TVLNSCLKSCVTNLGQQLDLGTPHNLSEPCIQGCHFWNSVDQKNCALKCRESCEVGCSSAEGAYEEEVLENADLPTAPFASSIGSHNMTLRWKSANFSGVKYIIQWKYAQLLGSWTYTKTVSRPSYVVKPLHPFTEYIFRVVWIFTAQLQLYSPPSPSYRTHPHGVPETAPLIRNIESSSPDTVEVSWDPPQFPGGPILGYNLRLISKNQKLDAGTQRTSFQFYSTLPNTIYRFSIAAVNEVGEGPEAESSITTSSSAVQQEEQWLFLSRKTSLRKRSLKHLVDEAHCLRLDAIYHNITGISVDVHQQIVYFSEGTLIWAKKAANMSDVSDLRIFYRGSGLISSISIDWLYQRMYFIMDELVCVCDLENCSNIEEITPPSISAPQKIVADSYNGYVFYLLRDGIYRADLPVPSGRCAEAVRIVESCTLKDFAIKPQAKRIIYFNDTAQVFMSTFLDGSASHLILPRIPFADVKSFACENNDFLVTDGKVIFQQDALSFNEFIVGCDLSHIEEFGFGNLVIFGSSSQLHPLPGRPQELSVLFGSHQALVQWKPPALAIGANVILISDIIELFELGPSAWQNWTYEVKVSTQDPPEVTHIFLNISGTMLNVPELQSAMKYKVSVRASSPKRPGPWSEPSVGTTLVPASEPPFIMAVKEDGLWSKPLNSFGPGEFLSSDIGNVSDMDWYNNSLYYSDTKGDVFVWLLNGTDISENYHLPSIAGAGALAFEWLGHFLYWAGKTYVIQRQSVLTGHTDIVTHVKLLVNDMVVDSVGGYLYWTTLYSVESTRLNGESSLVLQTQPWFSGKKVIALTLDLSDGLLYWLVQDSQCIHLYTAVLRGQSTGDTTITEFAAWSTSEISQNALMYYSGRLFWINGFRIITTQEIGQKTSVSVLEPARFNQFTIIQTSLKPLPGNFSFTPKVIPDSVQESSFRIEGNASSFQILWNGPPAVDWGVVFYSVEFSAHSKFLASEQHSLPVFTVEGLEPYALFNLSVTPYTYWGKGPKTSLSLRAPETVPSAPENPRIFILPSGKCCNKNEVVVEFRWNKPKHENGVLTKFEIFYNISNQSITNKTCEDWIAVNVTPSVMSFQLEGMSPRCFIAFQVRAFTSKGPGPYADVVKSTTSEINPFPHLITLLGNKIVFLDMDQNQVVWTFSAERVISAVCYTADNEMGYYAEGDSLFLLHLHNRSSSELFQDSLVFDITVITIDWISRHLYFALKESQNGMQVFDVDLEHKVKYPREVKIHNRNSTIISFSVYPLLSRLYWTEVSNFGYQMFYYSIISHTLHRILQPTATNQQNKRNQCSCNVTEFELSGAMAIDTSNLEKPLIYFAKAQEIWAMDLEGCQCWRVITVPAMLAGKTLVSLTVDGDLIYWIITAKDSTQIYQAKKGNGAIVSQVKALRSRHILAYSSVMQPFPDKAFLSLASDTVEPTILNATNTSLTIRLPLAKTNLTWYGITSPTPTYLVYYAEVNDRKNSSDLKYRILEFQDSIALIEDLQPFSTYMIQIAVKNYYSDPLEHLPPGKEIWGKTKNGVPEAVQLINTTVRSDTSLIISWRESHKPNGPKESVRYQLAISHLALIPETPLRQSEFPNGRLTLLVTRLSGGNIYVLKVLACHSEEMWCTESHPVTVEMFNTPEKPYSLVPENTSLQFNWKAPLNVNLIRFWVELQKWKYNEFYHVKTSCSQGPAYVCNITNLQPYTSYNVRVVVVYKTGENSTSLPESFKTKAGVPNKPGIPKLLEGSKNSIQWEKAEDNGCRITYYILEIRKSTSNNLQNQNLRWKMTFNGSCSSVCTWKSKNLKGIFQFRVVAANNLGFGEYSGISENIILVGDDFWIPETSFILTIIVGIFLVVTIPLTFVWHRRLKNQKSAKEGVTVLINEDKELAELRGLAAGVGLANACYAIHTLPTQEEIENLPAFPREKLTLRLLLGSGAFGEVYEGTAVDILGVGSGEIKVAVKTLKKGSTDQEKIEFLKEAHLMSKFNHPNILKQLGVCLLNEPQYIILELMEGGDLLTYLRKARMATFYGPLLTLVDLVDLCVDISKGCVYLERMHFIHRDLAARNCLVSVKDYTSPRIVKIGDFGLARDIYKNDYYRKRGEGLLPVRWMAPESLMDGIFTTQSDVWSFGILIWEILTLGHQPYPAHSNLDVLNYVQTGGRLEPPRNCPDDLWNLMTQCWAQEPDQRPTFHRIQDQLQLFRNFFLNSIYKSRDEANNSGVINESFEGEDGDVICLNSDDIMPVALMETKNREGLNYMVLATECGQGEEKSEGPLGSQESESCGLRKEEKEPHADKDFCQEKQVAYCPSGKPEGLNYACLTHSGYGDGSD
Chain of HCK (P08631 whole entry): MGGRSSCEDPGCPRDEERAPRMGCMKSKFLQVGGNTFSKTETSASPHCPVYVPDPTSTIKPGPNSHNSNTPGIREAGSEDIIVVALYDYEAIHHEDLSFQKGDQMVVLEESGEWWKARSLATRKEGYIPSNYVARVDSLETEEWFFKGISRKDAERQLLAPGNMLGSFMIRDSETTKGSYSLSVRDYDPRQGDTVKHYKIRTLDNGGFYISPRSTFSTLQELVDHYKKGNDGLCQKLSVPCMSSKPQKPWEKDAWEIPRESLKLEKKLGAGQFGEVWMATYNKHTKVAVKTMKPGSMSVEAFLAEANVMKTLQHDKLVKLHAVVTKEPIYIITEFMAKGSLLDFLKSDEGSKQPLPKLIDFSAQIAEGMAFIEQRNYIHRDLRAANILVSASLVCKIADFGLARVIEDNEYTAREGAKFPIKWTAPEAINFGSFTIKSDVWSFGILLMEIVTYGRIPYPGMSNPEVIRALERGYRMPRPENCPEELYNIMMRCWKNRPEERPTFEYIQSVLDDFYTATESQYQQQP
Chain of LCK (P06239 whole entry): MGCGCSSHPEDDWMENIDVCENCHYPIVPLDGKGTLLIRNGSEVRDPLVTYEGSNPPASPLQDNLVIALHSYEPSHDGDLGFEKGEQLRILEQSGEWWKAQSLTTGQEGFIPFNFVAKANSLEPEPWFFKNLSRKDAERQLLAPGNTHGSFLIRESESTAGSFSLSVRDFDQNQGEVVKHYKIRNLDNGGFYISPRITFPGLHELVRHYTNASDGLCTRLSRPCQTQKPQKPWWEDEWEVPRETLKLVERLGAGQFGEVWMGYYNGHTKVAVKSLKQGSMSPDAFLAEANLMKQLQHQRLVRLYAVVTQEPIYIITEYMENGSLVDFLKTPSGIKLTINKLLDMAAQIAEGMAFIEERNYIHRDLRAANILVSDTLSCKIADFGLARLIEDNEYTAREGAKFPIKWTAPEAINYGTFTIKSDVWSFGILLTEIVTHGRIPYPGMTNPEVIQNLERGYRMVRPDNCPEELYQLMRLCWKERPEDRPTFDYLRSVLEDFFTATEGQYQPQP

`COc1cc2nccc(Oc3ccc(NC(=O)C4(NC(=O)c5ccc(F)cc5)CC4)cc3F)c2cc1Oc1c(F)cc(N)cc1F` [Cbo-14]: the inhibition at 1 µM was found to be 100% on FRK (PTK5); 89% on RET; 86% on LYN A; 87% on LYN B; 88% at NTRK2 (TRKB); 99% at FER. For the same compound, the inhibition at 1 µM was determined as 92% on FLT4 (VEGFR3); 92% on FGR; 86% on SRC; 61% on EPHA2; 97% at ROS1; 101% on BTK. The inhibition at 1 µM was found to be 97% on LCK; 93% at INSRR (IRR); 74% at HCK; 94% at PDGFRA (PDGFR alpha); 89% at EGFR (ErbB1); 44% at ABL1. For the same compound, the inhibition at 1 µM at PTK2 (FAK) is 29%; on FLT1 (VEGFR1), 62%. The IC50 with CT-26 cells stood at 4.9 ± 0.11 µM.
